Data from patent US12384769B2, “Heteroaryl-substituted aminoalkyl azole compounds as pesticides” (Elanco Animal Health GmbH, priority 2019, dated 2025).

Columns and labels:
Type in all cases: in vivo
Ctenocephalides felis = Ctenocephalides felis oral test (CTECFE); settings: 48 h, 100 ppm in cattle blood, after 2 days
Outline: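 About 20 adult unfed fleas fed through parafilm on cattle blood held at 37° C and dosed with compound from a DMSO concentrate; flea chamber at room temperature. Percent mortality scored after 2 days.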

Rhipicephalus sanguineus = Rhipicephalus sanguineus in-vitro contact test, adult brown dog ticks (RHIPSA Contact); settings: 5 μg/cm^2 (=500 g/ha), after 48 hours, read-out: activity (efficacy, ticks dead or moribund)
Outline: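 Acetone solution coated onto glass tube walls; 900 ppm gives 5 μg/cm^2. After drying, 5-10 adult ticks per tube kept at room temperature for 48 h, then placed on a 45-50° C heating plate up to 5 min; ticks unable to climb away counted dead or moribund, efficacy as % affected.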

[1] = system: Culex quinquefasciatus strain P00; assay: Culex quinquefasciatus test (CULXFA surface treatment & contact assay); settings: 30 minutes exposure, 24 hours after contact, read-out: efficacy (mortality)
Experimental: Culex quinquefasciatus Test (CULXFA Surface Treatment & Contact Assay)
Solvent: Aceton+2000 ppm rapeseed oil methyl ester (RME)
In order to produce a sufficient, active ingredient containing solution it is necessary to solve the test compound in the solvent-mix (acetone at 2 mg/mL/RME 2 000 ppm). This solution is pipetted onto a glazed tile and after evaporation of the acetone, adult mosquitoes of the species Culex quinquefasciatus strain P00 are placed onto the dried surface. The exposure time is 30 minutes.
Mortality in percent (%) is determined 24 hours after contact of the insects to the treated surface. 100% mortality means that all tested insects are dead, whereas 0% means that no insect died.

**Q.** Which results are given for `C[C@H](Nc1nc2cc(C(F)(F)F)c(Cl)cc2o1)c1ncnn1-c1ncccn1` [Example I-001, 6-chloro-N-{(1S)-1-[1-(pyrimidin-2-yl)-1H-1,2,4-triazol-5-yl]ethyl}-5-(trifluoromethyl)-1,3-benzoxazol-2-amine]?
**A.** mortality at 100 ppm (Ctenocephalides felis): 100%; pest or weed control at 5 µg/cm2, 5 µg/cm2 (Rhipicephalus sanguineus): 100%; mortality at 4 mg/m2 ([1]; surface concentration 4 mg/m^2, glazed tile): 90 to 100%; mortality at 20 mg/m2 ([1]; surface concentration 20 mg/m^2, glazed tile): 90 to 100%
